Legend:
Assay in all cases: relative viability (nuclei count vs DMSO), 5 days (fraction); higher = more cells survive
NCI-H520 = system: NCI-H520
Method in brief: (§1)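 After 5 days of treatment, lung cancer cells in 1536-well plates were fixed and stained in a single step (final 0.05% Triton X-100, 1% formaldehyde, 1 ug/ml Hoechst) and their nuclei counted on 4× images. Treatment had been applied by pin tool the day after seeding as one drug alone or as a fixed anchor-drug dose with five library-drug doses (not always all listed) in √10 steps. Relative viability is the nuclei count of treated wells divided by that of vehicle wells, and values are medians of duplicate plates.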

NCI-H1792 = system: NCI-H1792
Method in brief: as §1

NCI-H1666 = system: NCI-H1666
Method in brief: as §1

HOP-62 = system: HOP-62
Method in brief: as §1

NCI-H1355 = system: NCI-H1355
Method in brief: as §1

HCC-827 = system: HCC-827
Method in brief: as §1

LU99A = system: LU99A
Method in brief: as §1

NCI-H838 = system: NCI-H838
Method in brief: as §1

NCI-H23 = system: NCI-H23
Method in brief: as §1

NCI-H596 = system: NCI-H596
Method in brief: as §1

EPLC-272H = system: EPLC-272H
Method in brief: as §1

PC-14 = system: PC-14
Method in brief: as §1

NCI-H322M = system: NCI-H322M
Method in brief: as §1

NCI-H2405 = system: NCI-H2405
Method in brief: as §1

NCI-H1975 = system: NCI-H1975
Method in brief: as §1

NCI-H3122 = system: NCI-H3122
Method in brief: as §1

NCI-H647 = system: NCI-H647
Method in brief: as §1

NCI-H727 = system: NCI-H727
Method in brief: as §1

NCI-H2170 = system: NCI-H2170
Method in brief: as §1

UMC-11 = system: UMC-11
Method in brief: as §1

BEN = system: BEN
Method in brief: as §1

Cc1cnc(-c2cnc(NCCNc3ccc(C#N)cn3)nc2-c2ccc(Cl)cc2Cl)[nH]1 + CC1(C)CCC(c2ccc(Cl)cc2)=C(CN2CCN(c3ccc(C(=O)NS(=O)(=O)c4ccc(N[C@H](CCN5CCOCC5)CSc5ccccc5)c(S(=O)(=O)C(F)(F)F)c4)cc3)CC2)C1 [Navitoclax] (partner 0.5 µM)
relative viability (NCI-H520; first compound 0.08 µM): 1.22
relative viability (NCI-H520; first compound 0.253 µM): 1.13
relative viability (NCI-H520; first compound 0.8 µM): 1.24
relative viability (NCI-H520; first compound 2.53 µM): 1.13
relative viability (NCI-H1792; first compound 0.08 µM): 0.624
relative viability (NCI-H1792; first compound 0.253 µM): 0.577
relative viability (NCI-H1792; first compound 0.8 µM): 0.601
relative viability (NCI-H1792; first compound 2.53 µM): 0.568
relative viability (NCI-H1666; first compound 0.08 µM): 0.921
relative viability (NCI-H1666; first compound 0.253 µM): 0.868
relative viability (NCI-H1666; first compound 0.8 µM): 0.835
relative viability (NCI-H1666; first compound 2.53 µM): 1.26
relative viability (HOP-62; first compound 0.08 µM): 1.13
relative viability (HOP-62; first compound 0.253 µM): 0.843
relative viability (HOP-62; first compound 0.8 µM): 0.997
relative viability (HOP-62; first compound 2.53 µM): 0.768
relative viability (NCI-H1355; first compound 0.08 µM): 1.03
relative viability (NCI-H1355; first compound 0.253 µM): 0.858
relative viability (NCI-H1355; first compound 0.8 µM): 0.884
relative viability (NCI-H1355; first compound 2.53 µM): 0.938
relative viability (HCC-827; first compound 0.08 µM): 1.04
relative viability (HCC-827; first compound 0.8 µM): 1.05
relative viability (HCC-827; first compound 2.53 µM): 1.05
relative viability (LU99A; first compound 0.08 µM): 0.858
relative viability (LU99A; first compound 0.253 µM): 0.808
relative viability (LU99A; first compound 0.8 µM): 0.794
relative viability (LU99A; first compound 2.53 µM): 0.823
relative viability (NCI-H838; first compound 0.08 µM): 1.21
relative viability (NCI-H838; first compound 0.253 µM): 1.11
relative viability (NCI-H838; first compound 0.8 µM): 1.44
relative viability (NCI-H838; first compound 2.53 µM): 1.6
relative viability (NCI-H23; first compound 0.08 µM): 0.875
relative viability (NCI-H23; first compound 0.253 µM): 0.87
relative viability (NCI-H23; first compound 0.8 µM): 0.63
relative viability (NCI-H23; first compound 2.53 µM): 0.785
relative viability (NCI-H596; first compound 0.08 µM): 1.1
relative viability (NCI-H596; first compound 0.253 µM): 0.79
relative viability (NCI-H596; first compound 0.8 µM): 0.882
relative viability (NCI-H596; first compound 2.53 µM): 0.897
relative viability (EPLC-272H; first compound 0.08 µM): 1.22
relative viability (EPLC-272H; first compound 0.253 µM): 1.31
relative viability (EPLC-272H; first compound 0.8 µM): 1.12
relative viability (EPLC-272H; first compound 2.53 µM): 1.07
relative viability (PC-14; first compound 0.08 µM): 1.1
relative viability (PC-14; first compound 0.253 µM): 0.883
relative viability (PC-14; first compound 0.8 µM): 1
relative viability (PC-14; first compound 2.53 µM): 0.895
relative viability (NCI-H322M; first compound 0.08 µM): 1.3
relative viability (NCI-H322M; first compound 0.253 µM): 1.25
relative viability (NCI-H322M; first compound 0.8 µM): 1.14
relative viability (NCI-H322M; first compound 2.53 µM): 1.2
relative viability (NCI-H2405; first compound 0.08 µM): 1.17
relative viability (NCI-H2405; first compound 0.253 µM): 0.761
relative viability (NCI-H2405; first compound 0.8 µM): 1.02
relative viability (NCI-H2405; first compound 2.53 µM): 0.326
relative viability (NCI-H1975; first compound 0.08 µM): 1.12
relative viability (NCI-H1975; first compound 0.253 µM): 0.982
relative viability (NCI-H1975; first compound 0.8 µM): 0.933
relative viability (NCI-H1975; first compound 2.53 µM): 0.567
relative viability (NCI-H3122; first compound 0.08 µM): 0.988
relative viability (NCI-H3122; first compound 0.253 µM): 0.881
relative viability (NCI-H3122; first compound 0.8 µM): 0.977
relative viability (NCI-H3122; first compound 2.53 µM): 0.994
relative viability (NCI-H647; first compound 0.08 µM): 1.19
relative viability (NCI-H647; first compound 0.253 µM): 0.718
relative viability (NCI-H647; first compound 0.8 µM): 1.07
relative viability (NCI-H647; first compound 2.53 µM): 0.723
relative viability (NCI-H727; first compound 0.08 µM): 0.45
relative viability (NCI-H727; first compound 0.253 µM): 0.432
relative viability (NCI-H727; first compound 0.8 µM): 0.476
relative viability (NCI-H727; first compound 2.53 µM): 0.364
relative viability (NCI-H2170; first compound 0.08 µM): 0.638
relative viability (NCI-H2170; first compound 0.253 µM): 0.51
relative viability (NCI-H2170; first compound 0.8 µM): 0.517
relative viability (NCI-H2170; first compound 2.53 µM): 0.537
relative viability (UMC-11; first compound 0.08 µM): 0.341
relative viability (UMC-11; first compound 0.253 µM): 0.295
relative viability (UMC-11; first compound 0.8 µM): 0.304
relative viability (UMC-11; first compound 2.53 µM): 0.324
relative viability (BEN; first compound 0.08 µM): 0.0701
relative viability (BEN; first compound 0.253 µM): 0.0548
relative viability (BEN; first compound 0.8 µM): 0.0658
relative viability (BEN; first compound 2.53 µM): 0.0673

From the supplement of paper PMC10307832
